Source: patent publication US20190262330A1, “Method of Treating Hepatocellular Carcinoma Using N-(4-(6,7-dimethoxyquinolin-4-yloxy)phenyl)-N′-(4-fluorophenyl)cyclopropane-1,1-dicarboxamide, (2S)-hydroxybutanedioate” (Exelixis, Inc., priority 2017, published 2019)

Tests used:
[1] = test system: previously treated advanced hepatocellular carcinoma; assay: Phase 3 CELESTIAL trial, efficacy (overall survival, progression-free survival, objective response); format: in vivo, human
Description: Eligible patients were 18 years of age or older with a pathologic diagnosis of hepatocellular carcinoma not amenable to curative treatment and with Child-Pugh Class A liver function. […] Additional inclusion criteria included Eastern Cooperative Oncology Group (ECOG) performance status of 0 or 1, acceptable hematologic parameters, and adequate renal function.
Randomization was stratified by disease etiology (HBV virus [with or without HCV], HCV [without HBV], or other), geographic region (Asia or other), and the presence of extrahepatic spread of disease and/or macrovascular invasion (yes or no).
Treatment interruptions and dose reductions (to 40 mg and then to 20 mg) were utilized to manage adverse events. Patients received study treatment as long as they experienced clinical benefit as judged by the investigator or until they experienced unacceptable toxicity.
The inflation of type 1 error was controlled by Lan-DeMets O'Brien-Fleming alpha-spending function.
Secondary efficacy endpoints were progression-free survival, defined as the time from randomization to the earlier of radiographic progression or death due to any cause, and objective response rate. Tumor assessments were performed using computed tomography or magnetic resonance imaging at baseline and every 8 weeks after randomization until the later of 8 weeks after radiographic progression or treatment discontinuation. Tumor response and progression were assessed by the investigator using Response Evaluation Criteria In Solid Tumors (RECIST) version 1.1. Eisenhauer E A, Therasse P, Bogaerts J, et al. New response evaluation criteria in solid tumours: revised RECIST guideline (version 1.1). […] Safety was continuously evaluated, and the severity of adverse events was assessed by the investigator using the National Cancer Institute Common Terminology Criteria for Adverse Events, version 4. Progression-free survival was tested by stratified log-rank test; significance level 0.04. Overall response rate was tested by 2-sided Fisher's exact test; significance level Of 0.01.
Efficacy was analyzed in all randomized patients by the intent-to-treat principle. Safety was analyzed in all patients who received at least one dose of study treatment. […] Hazard ratios were estimated using Cox regression models. Hypothesis testing for objective response was done with the Cochran-Mantel-Haenszel method. All subgroup analyses of overall survival and progression-free survival were prespecified except for those based on extrahepatic spread of disease or macrovascular invasion as separate factors or sorafenib as the only prior therapy. For subgroup analyses, no adjustments were made for multiplicity, hazard ratios are unstratified, and confidence intervals are considered descriptive.
Patients could have received one other prior systemic therapy. The primary efficacy endpoint was overall survival (OS). Secondary efficacy endpoints were progression-free survival (PFS) and objective response rate (ORR), as assessed by investigator using RECIST 1.1. Tumor assessments were conducted every 8 weeks.

juvenile rats = format: in vivo, rat
Description: […]. Mortalities occurred at doses equal and greater than 1 mg/kg/day (approximately 0.16 times the clinical dose of 60 mg/day based on body surface area).

ROS1 = ROS1 (Homo sapiens, UniProt P08922); assay: In vitro biochemical and/or cellular kinase assays
ROS1, sequence (P08922 28-2347): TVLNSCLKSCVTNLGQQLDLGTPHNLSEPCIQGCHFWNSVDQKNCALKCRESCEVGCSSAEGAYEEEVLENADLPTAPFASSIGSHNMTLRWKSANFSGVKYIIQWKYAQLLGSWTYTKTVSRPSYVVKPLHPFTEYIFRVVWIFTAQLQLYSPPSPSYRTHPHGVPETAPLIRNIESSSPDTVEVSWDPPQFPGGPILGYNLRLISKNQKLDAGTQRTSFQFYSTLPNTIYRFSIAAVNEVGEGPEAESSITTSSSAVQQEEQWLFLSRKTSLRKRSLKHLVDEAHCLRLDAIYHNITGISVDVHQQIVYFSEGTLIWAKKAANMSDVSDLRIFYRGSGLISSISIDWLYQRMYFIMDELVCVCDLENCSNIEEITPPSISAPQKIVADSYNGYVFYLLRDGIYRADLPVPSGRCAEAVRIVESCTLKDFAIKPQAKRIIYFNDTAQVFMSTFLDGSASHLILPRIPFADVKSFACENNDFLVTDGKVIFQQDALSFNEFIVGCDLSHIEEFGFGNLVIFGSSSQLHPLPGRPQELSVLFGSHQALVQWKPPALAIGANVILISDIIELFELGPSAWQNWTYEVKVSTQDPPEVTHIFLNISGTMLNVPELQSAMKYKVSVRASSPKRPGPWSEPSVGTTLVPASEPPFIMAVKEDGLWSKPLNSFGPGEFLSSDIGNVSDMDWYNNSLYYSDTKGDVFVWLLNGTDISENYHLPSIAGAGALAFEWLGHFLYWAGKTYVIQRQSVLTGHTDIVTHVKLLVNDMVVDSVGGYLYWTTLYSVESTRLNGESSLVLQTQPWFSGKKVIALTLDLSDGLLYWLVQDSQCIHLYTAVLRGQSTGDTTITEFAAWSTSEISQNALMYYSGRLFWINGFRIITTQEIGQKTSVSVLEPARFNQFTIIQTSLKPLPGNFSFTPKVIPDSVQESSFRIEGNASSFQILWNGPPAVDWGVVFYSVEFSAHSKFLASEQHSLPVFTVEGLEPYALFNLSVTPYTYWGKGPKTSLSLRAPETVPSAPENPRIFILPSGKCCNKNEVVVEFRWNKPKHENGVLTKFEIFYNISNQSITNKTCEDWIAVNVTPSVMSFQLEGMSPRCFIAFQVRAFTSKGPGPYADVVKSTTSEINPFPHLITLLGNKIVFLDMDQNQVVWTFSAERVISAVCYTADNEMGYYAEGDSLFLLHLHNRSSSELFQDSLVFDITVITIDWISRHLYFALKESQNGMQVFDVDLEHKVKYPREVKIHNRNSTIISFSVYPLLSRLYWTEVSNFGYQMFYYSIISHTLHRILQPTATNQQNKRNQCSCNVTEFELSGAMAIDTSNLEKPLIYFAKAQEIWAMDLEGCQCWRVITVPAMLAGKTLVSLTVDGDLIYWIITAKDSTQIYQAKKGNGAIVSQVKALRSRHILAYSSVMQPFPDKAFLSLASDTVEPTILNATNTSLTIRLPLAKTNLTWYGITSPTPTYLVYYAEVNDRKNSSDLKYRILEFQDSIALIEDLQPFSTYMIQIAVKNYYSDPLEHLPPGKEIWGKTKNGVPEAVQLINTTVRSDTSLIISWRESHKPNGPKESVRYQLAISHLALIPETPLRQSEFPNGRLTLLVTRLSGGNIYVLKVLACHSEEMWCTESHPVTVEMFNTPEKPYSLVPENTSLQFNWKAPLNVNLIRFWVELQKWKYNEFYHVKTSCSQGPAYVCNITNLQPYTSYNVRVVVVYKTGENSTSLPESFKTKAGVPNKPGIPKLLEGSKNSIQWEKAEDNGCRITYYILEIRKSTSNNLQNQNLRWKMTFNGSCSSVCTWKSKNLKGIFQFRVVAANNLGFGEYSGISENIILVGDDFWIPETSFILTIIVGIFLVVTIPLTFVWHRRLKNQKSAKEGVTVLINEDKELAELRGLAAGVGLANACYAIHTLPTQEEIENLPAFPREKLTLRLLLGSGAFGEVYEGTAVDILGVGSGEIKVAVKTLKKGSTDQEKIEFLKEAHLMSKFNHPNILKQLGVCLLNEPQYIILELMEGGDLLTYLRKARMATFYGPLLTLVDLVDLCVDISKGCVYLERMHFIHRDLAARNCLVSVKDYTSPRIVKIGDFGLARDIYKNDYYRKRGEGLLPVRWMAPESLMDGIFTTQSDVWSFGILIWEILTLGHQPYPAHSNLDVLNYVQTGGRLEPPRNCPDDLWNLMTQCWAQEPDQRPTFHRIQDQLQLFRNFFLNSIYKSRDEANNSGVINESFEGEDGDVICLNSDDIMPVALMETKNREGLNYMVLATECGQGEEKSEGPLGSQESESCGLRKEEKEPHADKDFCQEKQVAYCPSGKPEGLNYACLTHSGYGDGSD

[2] = Clinical pharmacokinetics; format: in vivo, human
CYP3A4 [3] = target: T1, CYP3A4 (Homo sapiens, UniProt P08684); assay: In vitro metabolic pathways; format: in vitro ADME
T1 sequence (P08684 whole entry): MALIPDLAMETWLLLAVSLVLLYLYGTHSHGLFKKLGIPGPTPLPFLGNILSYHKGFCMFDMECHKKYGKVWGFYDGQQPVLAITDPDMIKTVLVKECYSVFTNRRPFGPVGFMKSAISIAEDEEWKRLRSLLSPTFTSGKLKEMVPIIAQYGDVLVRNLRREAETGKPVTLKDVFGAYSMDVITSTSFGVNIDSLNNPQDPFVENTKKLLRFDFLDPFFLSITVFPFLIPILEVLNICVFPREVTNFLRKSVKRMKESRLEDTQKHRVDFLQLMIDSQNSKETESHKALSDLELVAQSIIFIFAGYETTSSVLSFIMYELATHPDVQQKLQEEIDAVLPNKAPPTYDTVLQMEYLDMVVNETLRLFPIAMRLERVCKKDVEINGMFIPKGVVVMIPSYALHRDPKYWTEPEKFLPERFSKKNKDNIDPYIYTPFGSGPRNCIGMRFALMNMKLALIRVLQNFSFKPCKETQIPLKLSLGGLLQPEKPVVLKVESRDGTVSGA

CYP1A2 [4] = target: CYP1A2 (Homo sapiens, UniProt P05177); assay: In vitro metabolic pathways; format: in vitro ADME
CYP1A2 (Homo sapiens, UniProt P05177), sequence (P05177 whole entry): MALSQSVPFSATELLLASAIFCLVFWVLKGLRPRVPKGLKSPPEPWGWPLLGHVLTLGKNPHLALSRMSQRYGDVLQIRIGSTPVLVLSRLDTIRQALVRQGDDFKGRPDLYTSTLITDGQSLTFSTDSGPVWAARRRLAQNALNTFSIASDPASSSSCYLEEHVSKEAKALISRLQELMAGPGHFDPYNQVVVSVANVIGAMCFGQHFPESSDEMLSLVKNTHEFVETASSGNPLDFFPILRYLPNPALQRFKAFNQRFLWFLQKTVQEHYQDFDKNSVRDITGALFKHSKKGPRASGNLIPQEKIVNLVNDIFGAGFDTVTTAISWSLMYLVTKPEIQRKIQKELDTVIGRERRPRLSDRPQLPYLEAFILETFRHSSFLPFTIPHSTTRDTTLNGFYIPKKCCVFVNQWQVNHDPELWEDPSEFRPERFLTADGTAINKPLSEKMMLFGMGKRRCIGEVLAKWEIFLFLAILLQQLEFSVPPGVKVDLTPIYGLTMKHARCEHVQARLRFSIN

CYP2A6 = CYP2A6 (Homo sapiens, UniProt P11509); assay: In vitro metabolic pathways; format: in vitro ADME
CYP2A6, sequence (P11509 whole entry): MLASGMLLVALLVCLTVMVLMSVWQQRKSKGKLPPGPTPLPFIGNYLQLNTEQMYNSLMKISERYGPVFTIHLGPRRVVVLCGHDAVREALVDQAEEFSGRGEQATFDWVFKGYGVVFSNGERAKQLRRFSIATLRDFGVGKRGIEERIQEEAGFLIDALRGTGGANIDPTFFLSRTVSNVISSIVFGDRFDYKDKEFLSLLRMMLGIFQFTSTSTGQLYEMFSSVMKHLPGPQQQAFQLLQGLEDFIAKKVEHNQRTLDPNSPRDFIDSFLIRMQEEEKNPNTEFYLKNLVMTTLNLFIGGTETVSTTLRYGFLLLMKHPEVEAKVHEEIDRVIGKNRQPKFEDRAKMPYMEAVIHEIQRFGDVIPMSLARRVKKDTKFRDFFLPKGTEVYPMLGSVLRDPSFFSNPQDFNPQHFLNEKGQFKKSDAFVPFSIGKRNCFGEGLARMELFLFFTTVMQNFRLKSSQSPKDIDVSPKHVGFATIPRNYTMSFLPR

CYP2B6 = CYP2B6 (Homo sapiens, UniProt P20813); assay: In vitro metabolic pathways; format: in vitro ADME
CYP2C8 [5] = target: T2, CYP2C8 (Homo sapiens, UniProt P10632); assay: In vitro metabolic pathways; format: in vitro ADME
T2 sequence (P10632 whole entry): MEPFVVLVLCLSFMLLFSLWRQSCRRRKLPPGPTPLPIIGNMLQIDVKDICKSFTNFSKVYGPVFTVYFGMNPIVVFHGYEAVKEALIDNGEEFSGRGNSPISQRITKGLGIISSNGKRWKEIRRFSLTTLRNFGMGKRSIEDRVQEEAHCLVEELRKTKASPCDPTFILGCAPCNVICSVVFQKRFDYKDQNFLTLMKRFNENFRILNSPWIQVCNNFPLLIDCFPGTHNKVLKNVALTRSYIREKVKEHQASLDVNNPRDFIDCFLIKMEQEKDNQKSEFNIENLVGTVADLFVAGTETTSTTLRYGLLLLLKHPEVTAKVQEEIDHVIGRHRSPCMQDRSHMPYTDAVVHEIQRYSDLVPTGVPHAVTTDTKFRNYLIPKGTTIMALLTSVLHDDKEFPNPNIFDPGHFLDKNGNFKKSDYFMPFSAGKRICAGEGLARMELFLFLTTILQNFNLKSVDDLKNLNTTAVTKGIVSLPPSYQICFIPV

CYP2D6 = CYP2D6 (Homo sapiens, UniProt P10635); assay: In vitro metabolic pathways; format: in vitro ADME
CYP2C8 [6] = target: T2, CYP2C8; assay: In vitro CYP inhibition; format: in vitro ADME
CYP2C9 [7] = target: CYP2C9 (Homo sapiens, UniProt P11712); assay: In vitro CYP inhibition; format: in vitro ADME
CYP2C9 (Homo sapiens, UniProt P11712), sequence (P11712 whole entry): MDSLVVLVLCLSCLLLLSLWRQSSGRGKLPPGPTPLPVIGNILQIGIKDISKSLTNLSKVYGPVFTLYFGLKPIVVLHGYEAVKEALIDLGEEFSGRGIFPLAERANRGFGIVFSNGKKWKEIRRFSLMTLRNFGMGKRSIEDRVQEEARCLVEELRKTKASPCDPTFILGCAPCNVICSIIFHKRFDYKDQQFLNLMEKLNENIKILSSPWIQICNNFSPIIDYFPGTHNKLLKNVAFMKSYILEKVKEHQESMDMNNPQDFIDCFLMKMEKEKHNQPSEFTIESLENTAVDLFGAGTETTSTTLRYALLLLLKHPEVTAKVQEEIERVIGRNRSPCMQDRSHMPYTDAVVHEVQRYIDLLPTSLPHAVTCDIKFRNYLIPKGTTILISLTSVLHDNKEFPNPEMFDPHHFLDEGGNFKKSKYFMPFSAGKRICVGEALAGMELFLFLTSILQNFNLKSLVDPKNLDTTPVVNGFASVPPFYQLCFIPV

CYP1A2 [8] = assay: In vitro CYP induction; format: in vitro ADME
CYP2C9 [9] = assay: In vitro CYP induction; format: in vitro ADME
CYP2C19 = assay: In vitro CYP induction; format: in vitro ADME
CYP3A4 [10] = assay: In vitro CYP induction; format: in vitro ADME
MRP2 = MRP2 (Homo sapiens, UniProt Q92887); assay: Drug transporter systems; format: in vitro ADME; settings: in vitro
Sprague-Dawley rats = assay: 2-year rat carcinogenicity study; format: in vivo
female rats = assay: 14-day general toxicology study in female rats; format: in vivo, rat; settings: 5 mg/kg/day for 14 days
[11] = test system: advanced hepatocellular carcinoma; settings: from study entry; cited from earlier work
CYP3A4 [12] = target: T1, CYP3A4; assay: Drug interaction with strong CYP3A4 inhibitor ketoconazole; format: in vivo; parameters: from tissue; settings: ketoconazole 400 mg daily for 27 days, healthy subjects
pregnant rats = assay: Embryo-fetal development study in pregnant rats; settings: daily oral, throughout organogenesis
[13] = subgroup whose only prior systemic therapy was sorafenib

COc1cc2nccc(Oc3ccc(NC(=O)C4(C(=O)Nc5ccc(F)cc5)CC4)cc3)c2cc1OC [cabozantinib]
Kaplan-Meier landmark estimate of % of patients alive (95% CI) ([1]; 6 months): 72 (67-76) % | Kaplan-Meier landmark estimate of % of patients alive (95% CI) ([1]; 12 months): 46 (41-50) % | Kaplan-Meier landmark estimate of % of patients alive (95% CI) ([1]; 18 months): 32 (27-37) % | Kaplan-Meier landmark estimate of % of patients alive (95% CI) ([1]; 24 months): 18 (14-22) % | Disease control (partial response or stable disease) ([1]; ITT): 64% | Median overall survival ([1]; ITT, second interim analysis, 60 mg once daily): 10.2 months | Objective response rate ([1]; RECIST 1.1, confirmed responses, ITT): 4% | Median progression-free survival ([1]; RECIST 1.1 per investigator, ITT): 5.2 months | Best overall response: complete response, n (%) ([1]; by investigator): 0 | Best overall response: not evaluable or missing ([1]; by investigator): (15) % | Best overall response: partial response ([1]; by investigator): (4) % | Best overall response: progressive disease ([1]; by investigator): (21) % | Best overall response: stable disease ([1]; by investigator): (60) % | Improvement in progression-free survival vs placebo ([1]; in vivo): more than 3 months | Median overall survival [1, 13]: 11.3 months | Median progression-free survival [1, 13]: 5.5 months | Mortality (juvenile rats; 2 mg/kg): high levels of mortality | Effects on bones (juvenile rats; rat, in vivo): reduced bone mineral content and density, physeal hypertrophy, and decreased cortical bone | Recovery after treatment ceased (juvenile rats; rat, in vivo): effects on bone parameters were partially resolved but effects on the kidney and epididymis/testis persisted | Target organs (juvenile rats; rat, in vivo): kidney (nephropathy, glomerulonephritis), reproductive organs, gastrointestinal tract | 1 mg/kg/day as times the clinical dose of 60 mg/day based on body surface area (juvenile rats; rat, in vivo, 1 mg/kg/day): approximately 0.16 times | 2 mg/kg as times the clinical dose of 60 mg based on body surface area (juvenile rats; rat, in vivo, 2 mg/kg): approximately 0.32 times | Tyrosine kinase activity of ROS1 (ROS1): inhibits | Steady state achieved ([2]; 140 mg daily): ≤ 15 days | Vd/F ([2]; human, plasma, po, read-out: Oral volume of distribution (VZ/F)): ~319 L | Tmax ([2]; human, plasma, oral, read-out: Median time to peak plasma concentrations (Tmax)): 3 to 4 h | CYP3A4 substrate status (CYP3A4 [3]): substrate | Effect of inhibition of CYP1A2 on metabolite formation (CYP1A2 [4]): no effect | Effect of inhibition of CYP2A6 on metabolite formation (CYP2A6): no effect | Effect of inhibition of CYP2B6 on metabolite formation (CYP2B6): no effect | Effect of inhibition of CYP2C8 on metabolite formation (CYP2C8 [5]): no effect | Effect of inhibition of CYP2D6 on metabolite formation (CYP2D6): no effect | Inhibition of CYP2C8 (CYP2C8 [6]): inhibitor | Effect on CYP2C9 pathway (CYP2C9 [7]): affected by cabozantinib in vitro | Induction of CYP1A2 (CYP1A2 [8]): does not induce | Induction of CYP2C9 (CYP2C9 [9]): does not induce | Induction of CYP2C19 (CYP2C19): does not induce | Induction of CYP3A4 (CYP3A4 [10]): does not induce | MRP2 substrate status (MRP2): substrate | Exposure at that dose, times the human exposure by AUC at the recommended 60 mg dose (Sprague-Dawley rats; 1 mg/kg): approximately 5 times | Dose with statistically significant increase in incidence of pheochromocytoma in male rats (Sprague-Dawley rats; once daily oral, 2-year): 1 mg/kg | Ovarian finding (female rats): ovarian necrosis | Median overall survival [11]: 11.5 months | Median progression-free survival [11]: 5.2 months | Increase of single-dose plasma exposure (AUC0-inf) (CYP3A4 [12]): 38% | Dose with delayed ossification and skeletal variations (pregnant rats): 0.01 mg/kg/day
